Converted amounts (≈) assume the structure as drawn. Like-named read-outs stand apart in the source and are kept apart here.
How the values were obtained:
[1] = in vivo
Protocol: PK of azaindoles compounds was performed in mice (healthy and infected) and rats. Mice were pretreated with 100 mg/kg ABT two hours prior to the compound administration. PK data from healthy mice was used to design the dosing regimen for the efficacy study while, information from infected mice was used for the PK-PD analysis.
All oral administration was performed as suspensions in 0.5% HPMC, and 0.1% Tween 80. […] All blood samples were collected via sapheneous vein into Microvette CB300® (Starstedt, Germany) tubes coated with Lithium-Heparin, and plasma was prepared from the collected blood by centrifugation.
One mg/mL stock solution of each compound was prepared in Dimethylsulfoxide (DMSO) and diluted two-fold with acetonitrile. A sixteen point calibration curve was utilized for each analyte, and the standard curves ranged from 0.001 to 40 μg/mL. Plasma/BAL samples were precipitated by adding chilled acetonitrile (1:10 v/v) containing carbamazepine as internal standard (250 ng/mL). Samples were vortexed, and centrifuged at 4000 rpm for 30 min at 10° C. The resulting supernatant was mixed with mobile phase (50% acetonitrile in water with 0.1% formic acid). […] of sample was injected on to a liquid chromatographic system (Waters-ACQUTY UPLC) coupled to triple quadrupole mass spectrometer (Waters-ACQUTY-TQD; MS/MS). Samples were acquired in positive ion mode and detected by multiple reaction monitoring (MRM). Concentrations of the analyte were determined from a standard curve obtained by plotting known concentrations of the analyte against peak area ratios (analyte/internal standard peak response).
PK analysis of the plasma concentration-time relationships were performed with WinNonlin Phoenix Software (version 6.2; Pharsight, USA). […] The maximum concentration of drug in plasma (Cmax), time to Cmax (Tmax), elimination half-life (t1/2), and AUC from time zero to infinity (AUC0-∞) were estimated. […] Minimum of three sample points in the terminal slope were used to estimate to calculate half-life.

[2] = in vivo; details: BALB/c, mouse, po
[3] = biological target: T1, hERG (Homo sapiens, UniProt Q12809)
T1 sequence (Q12809 whole entry): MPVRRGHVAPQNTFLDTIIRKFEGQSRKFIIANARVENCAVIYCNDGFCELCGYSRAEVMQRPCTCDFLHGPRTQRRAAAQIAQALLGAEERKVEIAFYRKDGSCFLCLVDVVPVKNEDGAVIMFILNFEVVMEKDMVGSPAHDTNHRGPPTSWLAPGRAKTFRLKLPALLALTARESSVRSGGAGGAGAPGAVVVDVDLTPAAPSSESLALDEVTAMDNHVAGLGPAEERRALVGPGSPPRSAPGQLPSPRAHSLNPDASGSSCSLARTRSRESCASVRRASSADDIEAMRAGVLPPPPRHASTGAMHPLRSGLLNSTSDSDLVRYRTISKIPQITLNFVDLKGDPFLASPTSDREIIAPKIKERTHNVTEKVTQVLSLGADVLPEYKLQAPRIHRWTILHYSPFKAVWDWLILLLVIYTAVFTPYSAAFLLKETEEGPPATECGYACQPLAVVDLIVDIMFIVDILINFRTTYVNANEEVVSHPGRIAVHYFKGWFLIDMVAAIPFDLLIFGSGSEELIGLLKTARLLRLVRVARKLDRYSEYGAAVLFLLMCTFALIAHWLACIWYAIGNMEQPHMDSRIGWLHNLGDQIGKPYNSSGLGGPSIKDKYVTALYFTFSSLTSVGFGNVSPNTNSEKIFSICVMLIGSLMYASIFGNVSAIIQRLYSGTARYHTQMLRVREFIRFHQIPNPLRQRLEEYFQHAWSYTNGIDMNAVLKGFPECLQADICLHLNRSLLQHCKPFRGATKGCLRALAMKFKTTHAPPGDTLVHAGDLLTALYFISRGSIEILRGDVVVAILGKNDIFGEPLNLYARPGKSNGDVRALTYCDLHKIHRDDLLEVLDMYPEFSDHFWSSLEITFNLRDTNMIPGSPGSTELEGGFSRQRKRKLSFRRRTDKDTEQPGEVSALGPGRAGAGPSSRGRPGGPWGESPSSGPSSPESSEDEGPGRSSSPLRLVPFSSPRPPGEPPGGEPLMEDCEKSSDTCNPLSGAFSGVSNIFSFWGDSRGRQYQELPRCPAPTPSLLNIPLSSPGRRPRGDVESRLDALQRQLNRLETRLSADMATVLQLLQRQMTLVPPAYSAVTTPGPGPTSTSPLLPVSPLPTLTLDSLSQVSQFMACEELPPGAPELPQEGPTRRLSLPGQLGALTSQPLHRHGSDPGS
Protocol: (§1) Compounds were tested on voltage-gated ion channels using the medium-throughput electrophysiology IonWorks™ device. […] For carrying out the experiment, a boat in the “Cells” position of the IonWorks™ instrument was loaded with the cell suspension, and a 96-well PBS destination plate was placed in the “Plate 1” position. A 384-well PatchPlate™ was placed in the IonWorks™ plenum and held in position using the plenum clamp. From this point the experiment progress is automated and ultimately reports a non-cumulative concentration-effect curve for test compound.

[4] = in vitro; assay type: in vitro ADME; details: pH 7.4; mouse microsomes; read-out: Mo micrsomal Clint
Protocol: 1 μM compound was incubated with 1 mg/mL of microsomes (Pooled HLM/MLM with 20 mg/ml protein cone.) at 37° C. in 166 μL of buffer (100 mM phosphate buffer, pH-7.4) containing 2 mM NADPH solution. 20 μL of incubation mix was quenched with 4 volumes chilled acetonitrile at different time points i.e. 0, 2, 5, 10, 20 and 30 min in a fresh 96 well plate. The quench plate was centrifuged at 4000 rpm for 15 min. 30 μL of supernatant was diluted to 300 μL with 50% acetonitrile in water and substrate depletion was analyzed using LC-MS/MS.

[5] = Protocol: Viability of cryopreserved hepatocytes was determined using trypan blue and the cell conc. was adjusted to 10^6 cells per mL with buffer (KHB buffer). 1 μM compound (in Acetonitrile; 0.01% DMSO) was incubated with 500 μL of hepatocyte cells (1 million cells per mL) in a NUNC plate. […] Supernatants were analyzed using LC-MS/MS for substrate depletion.
[6] = in vivo; details: BALB/c, mouse, po, 50 mg/kg
[7] = assay type: in vitro ADME; details: for predicted clearance: human, rat; for Human CLpred microsomes (% LBF): pH 7.4
Protocol: 1 μM compound was incubated with 1 mg/mL of microsomes (Pooled HLM/MLM with 20 mg/ml protein cone.) at 37° C. in 166 μL of buffer (100 mM phosphate buffer, pH-7.4) containing 2 mM NADPH solution. […] The quench plate was centrifuged at 4000 rpm for 15 min. 30 μL of supernatant was diluted to 300 μL with 50% acetonitrile in water and substrate depletion was analyzed using LC-MS/MS.

[8] = in vitro; assay type: in vitro ADME; details: plasma
Protocol: Protein binding is measured using the equilibrium dialysis technique. Compound is added to 10% plasma giving a concentration of 20 μM and dialysed with isotonic buffer for 18 hours at 37° C. The plasma and buffer solutions are analysed using generic LCUVMS and the first apparent binding constant for the compound derived. The binding constant is then used to determine the % free in 100% plasma.

[9] = in vivo; details: male, Wistar, rat, po, 100 mg/kg
[10] = test system: Mycobacterium tuberculosis (Mtb) H37Rv ATCC 27294; assay: microbe, parasite or virus in culture; assay type: cell-based; details: Mycobacterium tuberculosis, read-out: Mtb MIC
[11] = test system: Mycobacterium tuberculosis (Mtb) H37Rv; assay: Mtb minimal bactericidal concentration (MBC), plating from MIC plates; assay type: cell-based; details: Table 4, read-out: Mtb MBC
Protocol: Aliquots from sample wells (MIC and higher) from the MIC plates were diluted 1:10 and plated on 7H10 agar plates. Plates were incubated at 37° C. for 3-4 weeks, CFU was enumerated.

[12] = pH 7.4
Protocol: Octanol-water partition coefficient (Log D) based on the shake-flask principle has been measured as follows. The aqueous solution used was 10 mM sodium phosphate buffer pH 7.4. 20 μL of 10 mM compound dissolved in DMSO was taken in glass vial plate. DMSO was removed using GeneVac. 435 μL of octanol was added using Tomtec, stirred for 5 min to dissolve. Further mixing was done by inversion for 5 h at 25° C., subsequently centrifuged for 30 min at 3000 RPM. LC/UV/APPI/MS quantitation of both aqueous and octanol layers was carried out. Log D value was determined according to the following equation.

[13] = test system: A549 human lung carcinoma cells; assay type: cell-based
Protocol: The in vitro cytotoxicity of compounds were measured against A549 human lung carcinoma cells as describedin Eakin et. al (2012). Briefly, A549 cells (ATCC) were grown in RPMI medium (GIBCO-BRL) containing 10% heat-inactivated fetal bovine serum (GIBCO-BRL) and 1 mM L-glutamine (GIBCO-BRL) at a density of 1,000 cells/well. After incubation of the cells with compound in a CO2 atmosphere at 37° C. for 72 hours, cell viability was determined following addition of […] of resazurin solution (Sigma), by measuring fluorescence (excitation at 535 nm, emission at 590 nm) using a fluorimeter.

[14] = test system: panel of human targets and cardiac channels
[15] = physchem; assay type: physicochemical; details: 25 °C, pH 7.4, aqueous buffer, thermodynamic from solid
Protocol: Solubility of the compounds in 0.1M phosphate buffer, pH 7.4 was determined as described, Glyburide was used as QC standard in the assay. Briefly, compounds were diluted in ACN/water (40:60) to desired concentration, samples were dried using Genevac for 4 hrs and subsequently 800 μl of buffer was added. Compound containing plates were stirred for 24 hrs at 25° C. on Eppendorf Thermomix R at 750 rpm. Finally, compound concentration was estimated using UV and MS analysis.

[16] = test system: CYP1A2, CYP2C9, CYP2C19, CYP2D6, CYP3A4
[17] = test system: hypoxia induced non-replicating persistent (NRP) Mtb cells; assay: Activity against hypoxia induced non-replicating persistent (NRP) Mtb (HBC, Wayne model); assay type: cell-based, Mycobacterium tuberculosis; details: hypoxic conditions, Wayne model; Table 4
[18] = biological target: T1, hERG; assay: hERG assay, IonWorks electrophysiology
Protocol: as §1

[19] = Wistar, rat, in vivo, po, 30 mg/kg
[20] = Wistar, rat, in vivo, iv, 2 mg/kg
[21] = Wistar, rat, in vivo, po, 20 mg/kg

| SMILES | AUC(0-inf) [1, 19] [µM·h] | Cmax [1, 19] [µM] | Tmax [1, 19] [h] | half-life [1, 19] [h] | hERG [3] [µM] | microsomal CLint [4] [µL/min/mg] | Human CLpred hepatocytes (% LBF) [5] [% LBF] | Rat CLpred hepatocytes (% LBF) [5] [% LBF] | predicted clearance [7] | AUC(0-inf) [9] [µM·h] | Cmax [9] [µM] | Tmax [9] [h] | half-life [9] [h] | MIC ([10]; Table 1) [µM] | MIC ([10]; Table 4) [µM] | MBC [11] [µM] | Secondary pharmacology hits IC50 [14] | in vitro safety profiling [14] | Human CLpred microsomes (% LBF) [7] [% LBF] | Mtb HBC [17] [µM] | further results |
| --- | --- | --- | --- | --- | --- | --- | --- | --- | --- | --- | --- | --- | --- | --- | --- | --- | --- | --- | --- | --- | --- |
| COc1ncnc(Cn2cc(C(=O)NCC3CC3)c3ncccc32)c1C [Compound 4, N-(cyclopropylmethyl)-1-((6-methoxy-5-methylpyrimidin-4-yl)methyl)-1H-pyrrolo[3,2-b]pyridine-3-carboxamide] | 22.9 | 2.35 | 3 | 3.64 | >33 | 180 | 4.3 | 13 | 4-18 % of liver blood flow (% LBF) | – | – | – | – | – | – | – | – | – | – | – | AUC [2]: 200 to 700 µM·h; AUC(0-inf) ([2]; 30 mg/kg): 227 ± 28.9 µM·h; Cmax ([2]; 30 mg/kg): 17.4 ± 1.76 µM; Tmax ([2]; 30 mg/kg): 5.67 ± 2.31 h; half-life ([2]; 30 mg/kg): 3.85 ± 0.54 h; AUC(0-inf) [6]: 200 ± 101 µM·h; Cmax [6]: 38.9 ± 15.2 µM; Tmax [6]: 4.5 ± 2.78 h; half-life [6]: 2.23 ± 0.35 h |
| COc1ncnc(Cn2cc(C(=O)NCCF)c3ncc(C)cc32)c1C [Compound 8, N-(2-fluoroethyl)-1-((6-methoxy-5-methylpyrimidin-4-yl)methyl)-6-methyl-1H-pyrrolo[3,2-b]pyridine-3-carboxamide] | 29.3 | 3.69 | 4.5 | 3.58 | >33 | 108 | – | – | – | 98.4 ± 31.9 | 11.9 ± 3 | 1.5 ± 0.6 | 7.2 ± 1.3 | < 0.53 | < 0.39 | < 0.39 | No significant hits | no major safety liabilities | 10.1 | 100 | fraction unbound at 18 h, 20 μM ([8]; human): 0.05 to 0.22; Human PPB (% free) [8]: 5 % free; AUC(0-inf) ([1]; BALB/c, mouse, po, 30 mg/kg): 64.2 µM·h; Cmax ([1]; BALB/c, mouse, po, 30 mg/kg): 13.4 µM; Tmax ([1]; BALB/c, mouse, po, 30 mg/kg): 2 h; half-life ([1]; BALB/c, mouse, po, 30 mg/kg): 4.15 h; logD [12]: 2.6; Human CLpred hepatocytes (% LBF) ([5]; 1 μM): 4.3 % LBF; Rat CLpred hepatocytes (% LBF) ([5]; 1 μM): 14.9 % LBF; MMIC (A549) ([13]; human, 72 h): >100 µM; solubility [15]: 4 µM (≈ 1.43 µg/mL); CYP inhibition ([16]; human): >50 µM |
| COc1ncnc(Cn2cc(C(=O)NCCO)c3ncc(C)cc32)c1C [Compound 17, N-(2-hydroxyethyl)-1-((6-methoxy-5-methylpyrimidin-4-yl)methyl)-6-methyl-1H-pyrrolo[3,2-b]pyridine-3-carboxamide] | – | – | – | – | – | 25 | 9.2 | 17.9 | 4-18 % of liver blood flow (% LBF) | 986 ± 274 | 46.1 ± 7.7 | 5.3 ± 1.2 | 3.8 ± 0.6 | 1.56 (≈ 0.554 µg/mL) | 1.56 to 3.12 (≈ 0.554 to 1.11 µg/mL) | 0.78 to 1.56 (≈ 0.277 to 0.554 µg/mL) | No significant hits | no major safety liabilities | 16.1 | >100 | AUC(0-inf) ([1]; BALB/c, mouse, po, 50 mg/kg): 420 ± 23.5 µM·h; Cmax ([1]; BALB/c, mouse, po, 50 mg/kg): 74.8 ± 15.6 µM; Tmax ([1]; BALB/c, mouse, po, 50 mg/kg): 1.33 ± 0.58 h; half-life ([1]; BALB/c, mouse, po, 50 mg/kg): 1.78 ± 0.1 h; C0h ([1]; Wistar rats, IV 2 mg/kg, n = 2): 2.64 µM; F ([1]; Wistar rats, oral 20 mg/kg, n = 2): 100%; AUC(0-t) [1, 20]: 3.46 µM·h; Vd [1, 20]: 7.34 L/kg; clearance [1, 20]: 27.4 mL/min/kg; bioavailability ([1]; Wistar, rat, in vivo, po): 92%; AUC(0-inf) [1, 21]: 59.8 µM·h; Cmax [1, 21]: 17.8 µM; Tmax [1, 21]: 0.5 h; half-life [1, 21]: 2.74 h; hERG [18]: >33 µM; MMIC (A549) ([13]; 72 hours treatment, Table 4): >100 µM; CYP inhibition ([16]; CYP1A2, CYP2C9, CYP2C19, CYP2D6, CYP3A4): >50 µM |
